Read-outs that look alike come from different tables or passages of the source.
Experiments:
[1] = system: Trypomastigotes of T. cruzi (Dm28c-Luc); assay: microbe, parasite or virus in culture; type: cell-based, Trypanosoma cruzi; details: for IC50 / IC90: Trypanosoma cruzi, Dm28c-Luc, 24 h treatment; for IC50: 24 h, mean ± SD, read-out: Anti-T. cruzi Activity Trypomastigotes IC50; for IC90: read-out: Anti-T. cruzi Activity Trypomastigotes IC90
Experimental: (§1) Genetically modified T. cruzi parasites, of clone Dm28c (TcI) expressing the firefly luciferase enzyme gene (Dm28c-Luc), were kindly provided by Dr. Cristina Henriques. T. cruzi Dm28c-Luc was maintained in a Vero cell cultivated in RPMI 1640 medium supplemented with 10% FBS. At 4-day post-infection (dpi), trypomastigotes, released in the cell culture supernatant, were harvested, followed by sedimentation (4000 rpm/20 min/4 °C) and quantification in a Neubauer chamber. Isolated trypomastigotes were used in the phenotypic screening assays as well as the antiparasitic activity in 3D cardiac microtissues, recovery (washout), and drug combination assays.
Drug screening was performed against clinically relevant forms of T. cruzi (amastigotes and trypomastigotes). Trypomastigotes, Dm28c-Luc (1 × 10^6 parasites/well), were added to 96-well plates and incubated with pyrazole-thiadiazole derivatives or Bz (100–0.41 µM). After 24 h of treatment (37 °C), the viability of the parasites was analyzed by adding a D-Luciferin solution (300 µg/mL) and luminescence was measured in the Glomax microplate reader.

[2] = Toxicity in mammalian cells (CellTiter Glo, 72 h); type: cell-based; details: African green monkey, Vero cells; 72 h, ATP levels; read-out: Cytotoxicity Vero Cells CC50
Experimental: Vero cell cultures grown in RPMI 1640 medium containing 10% fetal bovine serum (FBS) were cultured at 37 °C in a humidified atmosphere of 5% CO2 [82]. The cultures were used for drug screening assays and to obtain culture-derived trypomastigotes of T. cruzi.
Vero cells (1.5 ×10^4 cells/well), cultivated for 24 h at 37 °C in white 96-well plates with clear bottoms, were used to assess the toxicity of the pyrazole-thiadiazole derivatives (series 1 and 2). After washing, the cells were incubated for 72 h at 37 °C with different drug concentrations (500–1.95 μM). Cell viability was measured by adding 20 μL/well of CellTiter Glo reagent (Promega Corporation, Madison, WI, USA). This cell viability kit generates a luminescent signal proportional to the amount of ATP. The luminescence readout was performed using the Glomax Microplate Reader (Promega Corporation, Madison, WI, USA). Thus, the 50% cytotoxicity concentration (CC50), which reduces the cell viability by 50% (CC50), was calculated with Prism GraphPad software (version 8.2.1).

[3] = system: Intracellular amastigotes of T. cruzi (Dm28c-Luc); assay: microbe, parasite or virus in culture; type: cell-based, Trypanosoma cruzi; details: for IC50 / IC90: Trypanosoma cruzi; for IC90: read-out: Anti-T. cruzi Activity Intracellular Amastigotes IC90
Experimental: as §1
The activity of pyrazole-thiadiazole derivatives against intracellular amastigotes was evaluated in 24 h-T. cruzi infected Vero cell cultures (1.5 × 10^4 cells/well) at a 10:1 ratio. The cultures were washed and incubated with serial dilutions of the derivatives or Bz (100–0.41 µM). Drug treatment was carried out for 72 h at 37 °C and the parasite viability was determined by luminescence readout after D-Luciferin substrate addition (300 µg/mL). The reading was performed in the Glomax reader. The cell cultures incubated with the culture medium containing dimethylsulphoxide (DMSO; concentration ≤ 1%) were used as the […]. The concentrations required to inhibit parasite viability by 50% (IC50) and 90% (IC90) were calculated using Prism GraphPad software (version 8.2.1). The selectivity index (SI), which measures the window between cytotoxicity (CC50) and anti-T. cruzi activity (IC50), was calculated as CC50/IC50. A minimum of 3 independent assays in duplicate were performed.

[4] = Vero, read-out: Intracellular Amastigotes pIC50 (converted)
[5] = Dm28c-Luc in Vero cells, 72 h treatment, mean ± SD, read-out: Anti-T. cruzi Activity Intracellular Amastigotes IC50
[6] = Dm28c-Luc in Vero cells, 72 h treatment, mean ± SD

Structure (SMILES) | Trypomastigotes SI (CC50 of Vero cells/IC50 of trypomastigotes) [1] | IC50 [1] | IC90 [1] | CC50 at 72 h [2] | Intracellular Amastigotes SI (CC50 of Vero cells/IC50 of intracellular amastigotes) [3] | IC50 [3, 4] | IC50 [3, 5] | IC90 [3, 6] | melting point
Nc1nnc(-c2cnn(-c3ccccc3)c2)s1 [1a, 5-Amino-2-(1-phenyl-1H-pyrazol-4-yl)-1,3,4-thiadiazole] | >5 | > 100 µM | > 100 µM | > 500 µM | >7.49 | 69.2 µM | 68.6 ± 1.03 µM | > 70 µM | 289 to 291 °C
Nc1nnc(-c2cnn(-c3cccc(Cl)c3)c2)s1 [1b, 5-Amino-2-(1-(3-chlorophenyl)-1H-pyrazol-4-yl)-1,3,4-thiadiazole] | >5 | > 100 µM | > 100 µM | > 500 µM | >7.73 | 67.6 µM | 68.1 ± 2.99 µM | > 70 µM | 310 to 311 °C
Nc1nnc(-c2cnn(-c3cc(Cl)cc(Cl)c3)c2)s1 [1d, 5-Amino-2-(1-(3,5-dichlorophenyl)-1H-pyrazol-4-yl)-1,3,4-thiadiazole] | >5 | > 100 µM | > 100 µM | > 500 µM | >8.29 | 58.9 µM | 58.7 ± 12.3 µM | > 70 µM | 283 to 285 °C
Nc1nnc(-c2cnn(-c3ccc(Cl)c(Cl)c3)c2)s1 [1e, 5-Amino-2-(1-(3,4-dichlorophenyl)-1H-pyrazol-4-yl)-1,3,4-thiadiazole] | >5 | > 100 µM | > 100 µM | > 500 µM | >25.64 | 18.6 µM | 18.8 ± 2.28 µM | 40.4 ± 13.3 µM | 313 to 315 °C
Nc1nnc(-c2cnn(-c3ccc(Cl)cc3)c2)s1 [1f, 5-Amino-2-(1-(4-chlorophenyl)-1H-pyrazol-4-yl)-1,3,4-thiadiazole] | >5 | > 100 µM | > 100 µM | > 500 µM | >7.14 | > 70.8 µM | > 70 µM | > 70 µM | 328 to 330 °C
Nc1nnc(-c2cnn(-c3ccc(F)cc3)c2)s1 [1g, 5-Amino-2-(1-(4-fluorophenyl)-1H-pyrazol-4-yl)-1,3,4-thiadiazole] | >5 | > 100 µM | > 100 µM | > 500 µM | >7.14 | > 70.8 µM | > 70 µM | > 70 µM | 335 to 337 °C
Nc1nnc(-c2cnn(-c3cccc(F)c3)c2)s1 [1h, 5-Amino-2-(1-(3-fluorophenyl)-1H-pyrazol-4-yl)-1,3,4-thiadiazole] | >5 | > 100 µM | > 100 µM | > 500 µM | >7.86 | 67.6 µM | 66.8 ± 3.37 µM | > 70 µM | 302 to 303 °C
Nc1nnc(-c2cnn(-c3ccc(Br)cc3)c2)s1 [1i, 5-Amino-2-(1-(4-bromophenyl)-1H-pyrazol-4-yl)-1,3,4-thiadiazole] | >5 | > 100 µM | > 100 µM | > 500 µM | >17.53 | 28.2 µM | 28.4 ± 1.77 µM | > 70 µM | 340 to 341 °C
Nc1nnc(-c2cnn(-c3cccc(Br)c3)c2)s1 [1j, 5-Amino-2-(1-(3-bromophenyl)-1H-pyrazol-4-yl)-1,3,4-thiadiazole] | >5 | > 100 µM | > 100 µM | > 500 µM | >7.14 | > 70.8 µM | > 70 µM | > 70 µM | 301 to 303 °C
Nc1nnc(-c2cnn(-c3ccc([N+](=O)[O-])cc3)c2)s1 [1k, 5-Amino-2-(1-(4-nitrophenyl)-1H-pyrazol-4-yl)-1,3,4-thiadiazole] | >5 | > 100 µM | > 100 µM | > 500 µM | >8.16 | 58.9 µM | 58.3 ± 12.8 µM | > 70 µM | 331 to 333 °C
COc1ccc(-n2cc(-c3nnc(N)s3)cn2)cc1 [1l, 5-Amino-2-(1-(4-methoxyphenyl)-1H-pyrazol-4-yl)-1,3,4-thiadiazole] | >9.43 | 53 ± 4.44 µM | > 100 µM | > 500 µM | >19.08 | 24.5 µM | 24.5 ± 4.21 µM | > 70 µM | 298 to 300 °C
Nc1nnc(-c2cnn(-c3ccccc3)c2N)s1 [2a, 5-Amino-2-(5-amino-1-phenyl-1H-pyrazol-4-yl)-1,3,4-thiadiazole] | >5 | > 100 µM | > 100 µM | > 500 µM | >7.14 | > 70.8 µM | > 70 µM | > 70 µM | 131 to 132 °C
Nc1nnc(-c2cnn(-c3cccc(Cl)c3)c2N)s1 [2b, 5-Amino-2-(5-amino-1-(3-chlorophenyl)-1H-pyrazol-4-yl)-1,3,4-thiadiazole] | >5 | > 100 µM | > 100 µM | > 500 µM | >7.14 | > 70.8 µM | > 70 µM | > 70 µM | 289 to 291 °C
Nc1nnc(-c2cnn(-c3cc(Cl)cc(Cl)c3)c2N)s1 [2d, 5-Amino-2-(5-amino-1-(3,5-dichlorophenyl)-1H-pyrazol-4-yl)-1,3,4-thiadiazole] | >5 | > 100 µM | > 100 µM | > 500 µM | >7.14 | > 70.8 µM | > 70 µM | > 70 µM | 299 to 300 °C
Nc1nnc(-c2cnn(-c3ccc(Cl)c(Cl)c3)c2N)s1 [2e, 5-Amino-2-(5-amino-1-(3,4-dichlorophenyl)-1H-pyrazol-4-yl)-1,3,4-thiadiazole] | >6.88 | 72.6 ± 6.76 µM | > 100 µM | > 500 µM | >13.73 | 33.9 µM | 33.6 ± 2.16 µM | 58.8 ± 8.26 µM | 258 to 260 °C
Nc1nnc(-c2cnn(-c3ccc(Cl)cc3)c2N)s1 [2f, 5-Amino-2-(5-amino-1-(4-chlorophenyl)-1H-pyrazol-4-yl)-1,3,4-thiadiazole] | >5 | > 100 µM | > 100 µM | > 500 µM | >7.14 | > 70.8 µM | > 70 µM | > 70 µM | 238 to 240 °C
